Data taken from patent US8940783B2, “Pheophorbide-α conjugates and their uses” (Gwangju Institute of Science and Technology, priority 2012, dated 2015).

Legend:
[1] = Fluorescence spectrometry; type: physicochemical; conditions: for fluorescence emission peak: 1 μM in MeOH; for blue shift of fluorescence emission spectra at pH 4 from those at pH 10 / intensity of fluorescence at pH 4 and pH 10 / intensity of fluorescence in 50% aqueous MeOH compared with 100% MeOH: 420 nm excitation, 6 at 1 μM; for blue shift of fluorescence emission spectra at pH 4 from those at pH 10 / intensity of fluorescence at pH 4 and pH 10: 7 at 0.3 μM; for intensity of fluorescence in 50% aqueous MeOH compared with 100% MeOH: 7 at 0.5 μM
Method: Fluorescence measurements were done using a FluoroMate FS-2. Steady-state fluorescence spectra were generally taken at 1 μM of compounds (1, 2, 6, 10, and 13) and 0.5 μM of compound 7 in MeOH. The samples were illuminated with 420 and 440 nm of light and fluorescence emission was scanned from 500 to 800 nm. Fluorescence spectra in both aqueous and organic solvent were generally taken at 1 μM of compound 6 and 0.5 μM of compound 7 in 100% MeOH and 50% aqueous MeOH by illumination with 420 nm of light. The pH profiles of fluorescence spectra were generally taken at 1 μM of compound 6 and 0.3 μM of compound 7 at pH 4 and 10 in MeOH by illumination with 420 nm of light.
To determine fluorescence quenching effect of the conjugates, the intensity of fluorescence of each compound with same concentration was analyzed using fluorescence spectrophotometer. The fluorescence emission spectrum of compounds at 1 μM (1, 2, 6, 10, and 13) and 0.5 μM (7) was obtained by excitation wavelengths (420 and 440 nm). […] Therefore, it could be speculated that the background fluorescence of the conjugates as they are administered invivo, may not be detected until internalization and cleavage of the conjugates by enzymatic attack in cancer cells are occurred so that the photoactivity of Pa and DOX may be recovered. In the case of Pa-PTX conjugate (7), fluorescence quenching effect was not observed as PTX is not a fluorophore (FIG. 3). To verify fluorescence quenching due to a close contact effect, spectral comparison of fluorescence emission of compounds 6 (1 μM) and 7 (0.5 μM) in aqueous and organic solvent was investigated by 420 nm excitation wavelength using fluorescence spectrophotometer. In contact quenching, two molecules interact by proton-coupled electron transfer through the formation of hydrogen bonds. In aqueous solutions, electrostatic, steric and hydrophobic forces control the formation of hydrogen bonds. Therefore, the quenching efficiency of conjugates could depend on the employed solvents.

various cancer cells = assay: SRB cell viability assay, various cancer cells (overall comparison); type: cell-based; conditions: same concentration (10 μM), three days; 6 compared with DOX; 10 and 13 compared with Pa-DOX direct conjugate
Method: (§1) The AT-84 is a squamous cell carcinoma, spontaneously arising from oral mucosa and syngenic to C3H/HeJ mice (which were kindly provided by Dr. E. J. Shillitoe, State University of New York, Upstate Medical University). MCF7, KB, HCT116, PC3, U-87MG, SK-OV-3, AT-84 cells were grown in RPMI 1640. The adherent cell line HepG2, HeLa, A549, YD-10B cells were cultured in DMEM medium. Both media were supplemented with 10% FBS (Invitrogen Co.), and antibiotic-antimycotic (Invitrogen Co.). All cell lines were incubated in a humidified atmosphere containing 5% CO2 at 37° C. The adherent cells were detached from the culture flasks by removal of the growth medium and addition of 1 mL trypsin/EDTA solution (0.05% w/v trypsin, 0.016% w/v EDTA). After 1-2 min incubation at 37° C., when the cells had detached from the surface, trypsinization was stopped by the addition of 4 mL of DMEM medium containing 10% FBS.
The cells were plated at a density of 50,000 cells/mL and well in 96-well plates and incubated with inhibitors for the time indicated. The SRB assay was carried out as described by Skehan et al. (Skehan, P. et al., J. Natl. Cancer Inst. 1990, 82, 1107). The drug incubation period of the cells was stopped by the addition of 50 μL of ice cold TCA solution into the growth medium.
A cell viability assay was conducted to test the synthesized compounds on various cancer cells including MCF7 (breast adenocarcinoma), KB (mouth carcinoma), HeLa (cervical cancer), U-87MG (glioblastoma), A549 (lung adenocarcinoma), AT-84 (oral cancer), and YD-10B (oral cancer) cells. Briefly, the cells were incubated for three days with the synthesized compounds (6, 7, 10, and 13) and the viability was measured by the protocol of SRB assay. […] The results may be interpreted with possibilities that the conjugates may suffer from entering the cells or being cleaved in the cells. Infact, the cellular uptake of the conjugates was occurred slower than Pa itself as shown in the study of Section 2.4. […]

[2] = tested on: MCF7 (breast adenocarcinoma) cells; assay: SRB cell viability assay, MCF7; type: cell-based; conditions: 10 μM, three days
Method: as §1, with “FBS. […]” for “FBS.”
(§2) A cell viability assay was conducted to test the synthesized compounds on various cancer cells including MCF7 (breast adenocarcinoma), KB (mouth carcinoma), HeLa (cervical cancer), U-87MG (glioblastoma), A549 (lung adenocarcinoma), AT-84 (oral cancer), and YD-10B (oral cancer) cells. Briefly, the cells were incubated for three days with the synthesized compounds (6, 7, 10, and 13) and the viability was measured by the protocol of SRB assay. […]

[3] = tested on: HeLa (cervical cancer) cells; assay: SRB cell viability assay, HeLa; type: cell-based; conditions: 10 μM, three days
Method: as §1, with “FBS. […]” for “FBS.”
as §2

[4] = tested on: AT-84 (oral cancer) cells; assay: SRB cell viability assay, AT-84; type: cell-based, mice; conditions: AT-84 cells, 10 μM, three days
Method: as §1, with “FBS. […]” for “FBS.”
as §2

[5] = tested on: U-87MG (glioblastoma) cells; assay: SRB cell viability assay, U-87MG; type: cell-based; conditions: U-87MG cells, 10 μM, three days
Method: as §1, with “FBS. […]” for “FBS.”
as §2

[6] = tested on: KB (mouth carcinoma) cells; assay: SRB cell viability assay, KB; type: cell-based; conditions: 10 μM, three days
Method: as §1, with “FBS. […]” for “FBS.”
as §2

[7] = tested on: YD-10B (oral cancer) cells; assay: SRB cell viability assay, YD-10B; type: cell-based; conditions: YD-10B cells, 10 μM, three days
Method: as §1, with “FBS. […]” for “FBS.”
as §2

Compound | fluorescence emission peak ([1]; excitation 420 and 440 nm) [nm] | inhibitory activity of the cell viability relative to comparator (various cancer cells) | inhibition of growth / cell viability [2] | inhibition of growth / cell viability [3] | blue shift of fluorescence emission spectra at pH 4 from those at pH 10 [1] | intensity of fluorescence at pH 4 and pH 10 [1] | intensity of fluorescence in 50% aqueous MeOH compared with 100% MeOH [1] | other results
C=Cc1c(C)c2cc3nc(c4c5[nH]c(cc6nc(cc1[nH]2)C(C)=C6CC)c(C)c5C(=O)C4C(=O)OC)[C@@H](CCC(=O)O)[C@@H]3C (stereo partly drawn) [Compound 1, Pheophorbide-α] | 665 | – | – | – | – | – | – | –
COc1cccc2c1C(=O)c1c(O)c3c(c(O)c1C2=O)C[C@@](O)(C(=O)CO)C[C@@H]3O[C@H]1C[C@H](N)[C@H](O)[C@H](C)O1 [Compound 2, doxorubicin, reference compound] | 585 | – | – | – | – | – | – | –
C=Cc1c(C)c2cc3nc(c4c5[nH]c(cc6nc(cc1[nH]2)C(C)=C6CC)c(C)c5C(=O)C4C(=O)OC)[C@@H](CCC(=O)NC1C[C@@H](O[C@H]2C[C@](O)(C(=O)CO)Cc4c(O)c5c(c(O)c42)C(=O)c2c(OC)cccc2C5=O)O[C@H](C)[C@@H]1O)[C@@H]3C (stereo partly drawn) [Compound 6, Pheophorbide-α-Doxorubicin] | 670 | lower activity than DOX itself | moderately inhibited | moderately inhibited | about 10 nm | increased at pH 4 but decreased at pH 10 | significantly reduced | inhibition of growth / cell viability [4]: moderately inhibited; inhibition of growth / cell viability [5]: moderately inhibited
C=Cc1c(C)c2cc3nc(c4c5[nH]c(cc6nc(cc1[nH]2)C(C)=C6CC)c(C)c5C(=O)C4C(=O)OC)[C@@H](CCC(=O)O[C@H](C(=O)O[C@H]1C[C@@]2(O)[C@@H](OC(=O)c4ccccc4)[C@@H]4[C@]5(OC(C)=O)CO[C@@H]5C[C@H](O)[C@@]4(C)C(=O)[C@H](OC(C)=O)C(=C1C)C2(C)C)[C@H](NC(=O)c1ccccc1)c1ccccc1)[C@@H]3C (stereo partly drawn) [Compound 7, Pheophorbide-α-Paclitaxel] | – | – | potent inhibitory activity | potent inhibitory activity | about 10 nm | increased at pH 4 but decreased at pH 10 | significantly reduced | inhibition of growth / cell viability [6]: potent inhibitory activity; inhibition of growth / cell viability [7]: potent inhibitory activity; fluorescence quenching effect ([1]; 0.5 μM in MeOH, excitation 420 and 440 nm): not observed
Pheophorbide-α-2-hydroxycinnamic acid-doxorubicin [Compound 10] | 670 | generally less inhibitory activity | – | – | – | – | – | –
Pheophorbide-α-4-aminobenzyl alcohol-4-nitrophenyl formate-doxorubicin [Compound 13] | 670 | generally less inhibitory activity | – | – | – | – | – | –
